Results taken from patent US8445533B2, “Andrographolide derivatives to treat viral infections” (Cornell Research Foundation, Inc., priority 2004, dated 2013).
Converted amounts (≈) assume the structure as drawn. Like-named read-outs stand apart in the source and are kept apart here.

How the values were obtained:
[1] = system: HCV replicon-bearing cells (subgenomic 1b Strain N); experiment: MTT cytotoxicity in HCV replicon cells, subgenomic 1b Strain N; type: cell-based, human; conditions: 4 days
Procedure: (§1) HCV replicon—SEAP (secreted alkaline phosphatase) cell lines have been described previously. Low passage cell stocks of cell lines stored frozen (−160° C.) were used in the assays. Serial dilutions of test compounds were made from initial stocks and each concentration plated in 96-well plates. Low passage HCV replicon-bearing cells were then trypsinized, counted and seeded into the wells. The plates were incubated at 37° C. in a CO2 incubator for 4 days. The culture supernatant was then removed from each well and heat inactivated for 30 min at 65° C. SEAP activity was measured and EC50 values calculated by comparing SEAP present in drug-treated and untreated wells. Cytotoxicity produced by compounds during screening was evaluated by MTT assay at the end of the incubation period.

[2] = system: HCV replicon subgenomic 1b Strain N; experiment: HCV replicon SEAP reporter assay, subgenomic 1b Strain N; type: cell-based, hepatitis C virus; conditions: 4 days
Procedure: as §1
(§2) Growth medium from each well was aspirated prior to the addition of lysis solution followed by vigorous pipetting. Each lysate was processed using DNase I treatment. Total RNA was eluted into orgainic carbon-free water and converted into cDNA enzymatically.

[3] = system: HCV replicon subgenomic 1a; experiment: HCV replicon SEAP reporter assay, subgenomic 1a; type: cell-based, hepatitis C virus; conditions: 4 days
Procedure: as §1, §2

[4] = system: HCV replicon-bearing cells (subgenomic 1a); experiment: MTT cytotoxicity in HCV replicon cells, subgenomic 1a; type: cell-based, human; conditions: 4 days
Procedure: as §1

tumor cell lines = conditions: cited from earlier work
proprotein convertase-1 = conditions: cited from earlier work
KB = conditions: cited from earlier work
[5] = system: P388 lymphocytic leukemia; conditions: cited from earlier work
funin = funin (Homo sapiens, UniProt P09958); conditions: cited from earlier work
Chain of funin (P09958 108-794): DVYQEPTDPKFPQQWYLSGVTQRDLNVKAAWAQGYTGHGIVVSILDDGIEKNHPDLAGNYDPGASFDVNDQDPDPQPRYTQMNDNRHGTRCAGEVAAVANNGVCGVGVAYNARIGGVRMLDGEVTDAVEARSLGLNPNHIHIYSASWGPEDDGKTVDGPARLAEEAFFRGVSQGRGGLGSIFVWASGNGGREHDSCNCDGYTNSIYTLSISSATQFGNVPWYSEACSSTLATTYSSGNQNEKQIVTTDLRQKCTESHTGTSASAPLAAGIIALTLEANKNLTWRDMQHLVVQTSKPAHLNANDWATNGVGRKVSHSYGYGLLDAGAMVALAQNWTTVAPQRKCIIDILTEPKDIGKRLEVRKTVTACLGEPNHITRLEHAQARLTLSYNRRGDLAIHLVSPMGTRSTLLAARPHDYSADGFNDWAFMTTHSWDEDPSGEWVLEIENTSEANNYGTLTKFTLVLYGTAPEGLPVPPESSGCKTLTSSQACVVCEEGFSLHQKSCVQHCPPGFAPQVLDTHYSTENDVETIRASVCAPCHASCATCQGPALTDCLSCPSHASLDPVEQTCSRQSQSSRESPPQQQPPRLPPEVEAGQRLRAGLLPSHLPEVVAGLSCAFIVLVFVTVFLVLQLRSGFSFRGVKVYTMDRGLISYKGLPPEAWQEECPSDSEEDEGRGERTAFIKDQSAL

isolated rat hepatocytes = conditions: ex vivo isolated rat hepatocytes; cited from earlier work
proprotein convertase-7 = conditions: cited from earlier work
[6] = system: cytopathogenic isolate of BVDV; experiment: BVDV antiviral assay in woodchuck hepatic cell line WCH-8
Text: (§3) Woodchuck primary hepatocyte cultures and hepatic cell lines were inoculated with a cytopathogenic isolate of BVDV.

[7] = system: cytopathogenic isolate of BVDV; experiment: BVDV viral yield assay in woodchuck primary hepatocytes
Text: as §3

in vitro = conditions: woodchuck
Text: as §3

HIV-1 (IIIB) = conditions: Chang et al. 1991; cited from earlier work
WCH-8 cells = experiment: Cytotoxicity in WCH-8 cells
Text: as §3

cpBVDV isolate NADL = experiment: BVDV antiviral assay in NCL bovine uterine cell line (viral-induced cell killing, viral yield); conditions: Example 2B
Procedure: Derivatives of andrographolide were tested in an in vitro assay which measures the antiviral potential against a cytopathogenic isolate of BVDV in a permissive bovine uterine cell line.
The capacity to measure the effectiveness of compounds to reduce BVDV replication in vitro provides a system for preclinical assessment of potential drugs for treatment of viral infection and for analyzing possible mechanisms of action.
Cell lines were incubated in a humid atmosphere of 5% CO2 at 37° C. Cells were passaged by dissociation of the monolayer with a solution of trypsin-EDTA (Life Technologies), diluted in culture medium, and split 1:5 to new culture flasks.
A method to measure visible cell numbers involved staining with methylene blue (Sigma, St. Louis, Mo.) and reading the absorbance of the stain in solution after elution from the cells. […] The methylene blue staining solution was removed from the cultures and the culture plates were rinsed in several volumes of H^2O. The culture plates were allowed to air dry; this was followed by elution of the methylene blue stain from the fixed cells by incubation at controlled room temperature in a solution of PBS/50% ethanol and 1% acetic acid for 1 hour, with agitation. The absorbance of the methylene blue dye in solution was measured by an ELISA plate reader (Model EL311; Bio-Tek Instruments, Inc., Winooski, Vt.) at 630 nm. In all experiments described, calculation of cell numbers for each experimental data point was expressed as the average of three wells per experimental treatment (dilution, titer, or antiviral concentration).
The NCL cell line was grown to confluence and passaged to 96 well microtiter plates (Microtest™ 96; Becton Dickinson Labware, Franklin Lakes, N.J.), at a density of 2×10^4 cells/well (0.34 cm^2) and incubated for 1 hour to allow cell attachment. After attachment, the cells of one-half of each microtiter plate were inoculated with a cpBVDV stock diluted to yield a multiplicity of infection (m.o.i.) of 0.01 TCID50 and incubated for 3-6 hours to allow viral attachment and penetration. Following this incubation period, the inoculum was removed and replaced with fresh growth medium.
Three quarters of both cpBVDV infected and uninfected cells were grown in the presence of antiviral compound. The remaining quarter of the microassay plate served as positive (cpVDV infected) and negative (uninfected) control wells. The medium was changed daily and cell killing was measured by the methylene blue assay 3 days post-infection with BVDV.
The culture medium was collected on day 3 post-infection and the reduction in viral yield after antiviral treatment was determined. Supernatant collected from experimental wells was serially diluted ten-fold and used to infect newly prepared NCL cells. the end-point titer, the last dilution at which complete cell killing was evident, was determined in a similar 96 well format using the methylene blue assay for cell killing 5 days after infection.
Cell killing due either to viral infection or to drug cytotoxicity was calculated for each experimental data point and plotted. Regression analysis (curve fitting) was performed with SigmaPlot4.0 (Jandel Sci, San Rafael, Calif.) using the Regression Wizard library of equations which best fit the collected data.

[8] = system: woodchuck primary hepatocytes; experiment: Cytotoxicity in woodchuck primary hepatocytes
Text: as §3

uninfected NCL cells = experiment: Cytotoxicity toward uninfected NCL cells (methylene blue assay); type: cell-based, bovine; conditions: Example 2B
Procedure: A method to measure visible cell numbers involved staining with methylene blue (Sigma, St. Louis, Mo.) and reading the absorbance of the stain in solution after elution from the cells. […] The methylene blue staining solution was removed from the cultures and the culture plates were rinsed in several volumes of H^2O. […] The absorbance of the methylene blue dye in solution was measured by an ELISA plate reader (Model EL311; Bio-Tek Instruments, Inc., Winooski, Vt.) at 630 nm. In all experiments described, calculation of cell numbers for each experimental data point was expressed as the average of three wells per experimental treatment (dilution, titer, or antiviral concentration).
Three quarters of both cpBVDV infected and uninfected cells were grown in the presence of antiviral compound. […] The medium was changed daily and cell killing was measured by the methylene blue assay 3 days post-infection with BVDV.
Cell killing due either to viral infection or to drug cytotoxicity was calculated for each experimental data point and plotted. […]

## C[C@@]1(O)[C@H](O)[C@@H](CO)O[C@H]1n1ccc(N)nc1=O [2′-MeC, B-D-2′-methyl-cytidine]
[1]
  IC50: > 100 µM
[2]
  EC50: 25.1 µM
[3]
  EC50: 61.6 µM
[4]
  IC50: > 100 µM

## C=C1CCC2[C@](C)(CC[C@@H](O)[C@@]2(C)CO)C1/C=C/C1=CCOC1=O (some centres unmarked) [14-deoxy-11,12-didehydroandrographolide]
Tumor cell lines
  cytotoxic activity: no cytotoxic activity

## C=C1CC[C@@H]2[C@](C)(CO)[C@H](O)CC[C@@]2(C)[C@@H]1C/C=C1/C(=O)OC[C@H]1O [Andrographolide]
Proprotein convertase-1
  enzyme inhibition: relatively little enzyme inhibition
KB
  cytotoxic activity: significant cytotoxic activity
[5]
  cytotoxic activity: significant cytotoxic activity
funin
  enzyme inhibition: relatively little enzyme inhibition
Isolated rat hepatocytes
  protective activity against paracetamol-induced toxicity: protective activity
Proprotein convertase-7
  enzyme inhibition: relatively little enzyme inhibition

## C=C1CC[C@@H]2[C@](C)(CO[C@@H]3O[C@H](CO)[C@@H](O)[C@H](O)[C@H]3O)CCC[C@@]2(C)[C@@H]1CCC1=CCOC1=O [neoandrographolide]
Tumor cell lines; tumor cell lines
  cytotoxic activity: no cytotoxic activity

## NC(=O)c1ncn([C@@H]2O[C@H](CO)[C@@H](O)[C@H]2O)n1 [ribavirin, reference compound]
[6]; Bovine viral diarrhea virus isolates and strains, in Marmota monax, read-out: ckEC50
  EC50: 0.27 µg/mL (≈ 1.11 µM)
[7]
  tEC90: 2.9 µg/mL
In vitro
  CC50: 0.35 µg/mL (≈ 1.43 µM)

## dehydroandrographolide succinic acid monoester [DASM]
HIV-1 (IIIB)
  minimal concentration inhibitory to HIV-1 (IIIB): 1.6 to 3.1 pg/mL

## interferon-α
WCH-8 cells
  CC50: ≧1000 ng/ml
WCH-8 cells; up to a dose of 1000 ng/ml
  cytotoxicity, result in words: No cytotoxicity was observed
[6]; WCH-8 cells
  ckEC50: 288 ng/mL
  tEC90: 64 ng/mL
cpBVDV isolate NADL
  concentration range of reduction in viral-induced cell killing: 0.1 to 1000 ng/mL
  maximal reduction in viral-induced cell killing: 80%
  reduction in viral yields: 2 logs
cpBVDV isolate NADL; bovine uterine cell line
  S.I. (CC50/EC90): 6667
  ckEC50: 0.0074 ng/mL
  tEC90: 0.15 ng/mL
cpBVDV isolate NADL; bovine uterine cell line, listed as IFN-α
  tEC90: 150 ng/mL
[8]
  CC50: ≧1000 ng/ml
[8]; over the range tested
  cytotoxicity, result in words: no cytotoxicity was observed over the range tested
Uninfected NCL cells; bovine uterine cell line
  CC50: ≧1000 ng/ml
Uninfected NCL cells; over the range tested
  cytotoxicity, result in words: did not exhibit cytotoxicity over the range tested
[7]
  tEC90: 0.825 µg/mL
